According to US20120129869A1, “PHOSPHORYLATION AND MUTATIONS OF ANAPLASTIC LYMPHOMA KINASE AS A DIAGNOSTIC AND THERAPEUTIC TARGET IN LUNG CANCER” (Academia Sinica, priority 2010, published 2012):

Legend:
phosphorylated-Y1604 ALK [1] = test: Western blotting of phosphorylated-Y1604 ALK expression in H1299 transfectants; type: cell-based; conditions: both wild type and mutated ALK transfectants
Source text: For Western blotting analysis, the membranes were probed with specific antibodies against HA (Covance), phospho-tyrosine (4G10; Upstate Biotechnology), STAT3 (sc-482; Santa Cruz) and α-tubulin (DM1A; NeoMarkers). The phospho-ALK (Tyr1604), phospho-Akt ([…]), phospho-STAT3 (Tyr705), phospho-ERK (Thr202/Tyr204), Akt and ERK antibodies were purchased from Cell Signaling. For IHC staining assay, the tissue sections were stained with specific antibodies against phospho-ALK (pY1604; Epitomics), ALK (4204-1; Epitomics), phospho-STAT3 (Tyr705, D3A7; Cell Signaling) and phospho-Akt (Ser473, 736E11; Cell Signaling). The ALK inhibitor WHI-P154 was purchased from Calbiochem.
Cells were lysed in RIPA buffer (200 mM Tris, 150 mM NaCl, 1 mM EDTA, 1% NP40, 1 mM PMSF, 1 mM DTT) with addition of 1× phosphatase inhibitor cocktail set II from Calbiochem and 1× cocktails of protease inhibitor from Roche. The protein concentration was measured by BCA protein assay kit (Pierce Chemical). The equal amounts of cell lysates were subjected to SDS-PAGE, transferred to NC membranes, and then probed with specific antibody for protein detection. For co-immunoprecipitation assay, the equal amounts of cell lysates were firstly incubated with anti-HA antibody for one hour and subsequently reacted with protein A/G for overnight. […]

[2] = system: GFP-labeled H1299 transfectants of H694R and E1384K ALK; test: In vivo metastasis assay (tail vein injected lung metastasis model); parameters: species or system nude mice; conditions: 1 mg/kg/day intravenously
Procedure: In order to examine the in vivo metastatic capability, ALK wild type or mutations expressed H1299 transfectants were infected with GFP-lentivirus to generate the GFP fluorescence-labeled cells. A total of 2×10^6 cells were injected into nude mice through tail vein for measuring lung metastasis. For investigation of the tumor suppressive effects using ALK inhibitor, the nude mice were intravenously injected daily with WHI-P154 (1 mg/kg/day) after cell inoculation for 14 days. The survival rate was recorded daily and scarified the rest mice after 105 days. The pulmonary metastasis of GFP-labeled H1299 transfectants were visualized by fluorescence stereomicroscope.

H1299 cells [3] = test: Boyden chamber cell migration assay; type: cell-based; conditions: compared with DMSO control
Procedure: The cell migration capability was examined by Boyden chamber assay. Briefly, a total of 2×10^4 H1299 or NIH3T3 transfectants were inoculated into the cell migration insert (BD Biosciences) containing 350 μl DMEM medium alone, and the insert was placed into the well containing 750 μl complete DMEM medium in 24-well plate. After 24 hours incubation, the migrated cells were fixed with 100% methanol and stained by Giemsa's solution (Merck). The numbers of migrated cells were counted by using Image-pro plus analysis program.

[4] = system: H694R and E1384K ALK H1299 transfectants xenograft; test: In vivo xenograft tumor formation assay; parameters: species or system BALB/c NU mice; conditions: ALK mutations-bearing mice, 1 mg/kg/day intravenously, versus DMSO control
Procedure: (§1) Animal protocol was approved by the Institutional Animal Safety Committee. A total of 1×10^6 ALK-wild type or mutants expressed H1299 transfectants were mixed with matrigel (BD) and then subcutaneously injected into the right flank of four-week-old BALB/c NU mice. For WHI-P154 treatments, the nude mice were randomly divided into two groups when the mean tumor volume reached 20-50 mm^3. DMSO or WHI-P154 (1 mg/kg/day) was intravenously injected daily. The tumor volumes were measured weekly and calculated according to the formula: volume=length×width^2×0.52.

[5] = system: H1299 transfectants of wild type, H694R and E1384K ALKs; test: WST-1 cell growth, wild type and mutated ALK transfectants together; type: cell-based; conditions: both wild type and mutated ALK transfectants
Source text: The full-length cDNA of ALK-wild type was inserted into pCDNA3.0 vector by restriction sites Hind III and Not I. All ALK mutations were generated from the template of pCDNA3.0-ALK-wild type full-length construct using site-directed mutagenesis. H1299 and NIH3T3 cells were maintained in Dulbecco's Modified Eagle Medium (DMEM) medium supplemented with 10% Fetal Bovine Serum (FBS) and streptomycin. The H1299 and NIH3T3 cells were transfected with the expression constructs by Lipofectamine 2000 (Invitrogen) and further selected by G418 to establish mixtures of ALK-expressed transfectants.
For analysis of cell growth, a total of 1×10^3 cells/well was seeded in 96-well plate. After different culturing time, 10 μl/well WST-1 reagent (Roche Diagnostics) was added for reaction at 37° C. for 50 minutes. The absorbance at 450 nm was measured.

phosphorylated-Y1604 ALK [6] = test: IHC staining of phosphorylated-Y1604 ALK in xenograft tumor sections; type: in vivo, nude mice; conditions: H694R and E1384K xenograft tumor sections, versus DMSO control
Procedure: Human lung cancer tissue arrays containing 37 normal lung and 263 lung cancer sections from Pantomics (Luc961, Luc962, Luc1501, Luc1502 and Luc1503) were deparaffinized and the frozen tumor sections from the xenograft nude mice were fixed in 3% formaldehyde solution. All sections were treated in 3% H2O2 buffer for 30 minutes to inactivate the endogenous peroxidase activities, and then treated with 0.01M sodium citrate buffer for antigen retrieval. After blocking with 10% normal goat serum, these sections were reacted with specific antibodies at 4° C. for overnight. Subsequently, these sections were incubated with Super Picture HRP polymer conjugate secondary antibody (Zymed Laboratories), and then stained with DAB chromagen (Zymed Laboratories). These sections were also stained with Hematoxylin (DAKO).
as §1

H1299 cells [7] = test: Anchorage-independent growth (soft agar) assay; type: cell-based; conditions: compared with DMSO control
Procedure: A total of 2×10^4 H1299 or NIH3T3 transfectants were mixed in a final 0.3% agarose and plated onto the 60-mm plate containing 0.5% agarose. These cells were further cultured in 5% CO2 incubator at 37° C. for one month. The plates were dehydrated at room temperature and then stained with 0.3% crystal violet for visualizing colonies. The colony numbers were counted by using Image-pro plus analysis program.

Compound: COc1cc2ncnc(Nc3ccc(O)c(Br)c3)c2cc1OC [WHI-P154]
- inhibition of expression of phosphorylated-Y1604 ALK (phosphorylated-Y1604 ALK [1]): dose-dependent inhibition
- survival ([2]; mice with H694R and E1384K mutations): survive as long as control mice
- lung metastasis ([2]; mutation-bearing mice): significantly suppresses lung metastasis
- inhibition of cell migration (H1299 cells [3]): profound inhibition
- tumor growth [4]: significant reduction of tumor growth
- inhibition of cell growth [5]: dose-dependent inhibition
- expression of phosphorylated-Y1604 ALK in tumor sections (phosphorylated-Y1604 ALK [6]): significant lower expression of phosphorylated-Y1604 ALK
- inhibition of soft agar growth (H1299 cells [7]): profound inhibition
